Assays:
[1] = target: FAK recombinant protein (Homo sapiens (Human), UniProt Q05397); assay: Inhibitory activity against FAK enzyme (HTRF, TK substrate); format: biochemical
Experimental: A compound serially diluted with DMSO was mixed with a FAK recombinant protein. After the mixture was left to stand at room temperature for 10 min, a biotin-labeled TK substrate (TK) and ATP were added. […] The inhibition percentage and IC50 of the compound were calculated compared to the DMSO control group.

[2] = test system: PC3 cells; assay: PC3 cell proliferation, 2D activity assay (Cell Titer-Lumi, 72 h); format: cell-based, human; conditions: Homo sapiens, PC-3, read-out: 2D inhibitory activity against PC3 cells IC50
[3] = test system: PC3 cells; assay: PC3 cell proliferation, 3D activity assay (3D culture, 14 days); format: cell-based, human; conditions: Homo sapiens, PC-3, 336 h, read-out: 3D inhibitory activity against PC3 cells IC50

FAK recombinant protein, sequence (Q05397 whole entry): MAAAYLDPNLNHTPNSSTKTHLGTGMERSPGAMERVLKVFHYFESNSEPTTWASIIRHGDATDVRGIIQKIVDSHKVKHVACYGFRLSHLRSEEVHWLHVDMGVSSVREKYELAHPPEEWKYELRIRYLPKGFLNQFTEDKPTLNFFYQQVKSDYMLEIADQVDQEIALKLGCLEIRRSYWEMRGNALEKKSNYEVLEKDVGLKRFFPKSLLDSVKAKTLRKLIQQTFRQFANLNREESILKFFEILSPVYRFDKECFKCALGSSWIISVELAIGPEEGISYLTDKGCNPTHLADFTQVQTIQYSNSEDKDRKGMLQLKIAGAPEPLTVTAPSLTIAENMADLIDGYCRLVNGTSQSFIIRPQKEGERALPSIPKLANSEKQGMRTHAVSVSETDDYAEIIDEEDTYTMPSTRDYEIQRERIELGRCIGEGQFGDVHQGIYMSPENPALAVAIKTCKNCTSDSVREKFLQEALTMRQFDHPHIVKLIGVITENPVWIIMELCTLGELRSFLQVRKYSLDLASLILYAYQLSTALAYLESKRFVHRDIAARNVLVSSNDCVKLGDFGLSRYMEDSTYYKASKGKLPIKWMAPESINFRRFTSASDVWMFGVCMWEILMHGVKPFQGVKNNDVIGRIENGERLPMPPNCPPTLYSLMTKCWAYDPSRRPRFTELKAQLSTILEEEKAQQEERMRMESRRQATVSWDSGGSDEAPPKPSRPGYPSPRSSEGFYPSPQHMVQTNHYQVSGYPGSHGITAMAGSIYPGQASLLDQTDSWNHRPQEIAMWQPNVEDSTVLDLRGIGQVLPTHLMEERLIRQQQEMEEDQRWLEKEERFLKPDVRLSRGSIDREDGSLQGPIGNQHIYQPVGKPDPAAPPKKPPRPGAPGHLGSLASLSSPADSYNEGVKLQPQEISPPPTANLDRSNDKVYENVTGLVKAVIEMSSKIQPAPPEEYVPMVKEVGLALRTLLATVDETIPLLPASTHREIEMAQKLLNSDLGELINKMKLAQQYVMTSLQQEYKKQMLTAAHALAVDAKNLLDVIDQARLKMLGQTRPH

IC50 [1] [nM]	IC50 [2] [nM]	IC50 [3] [nM]	SMILES
< 20	> 2000	< 5	COc1cc(C(=O)NC2CCC3(CCN(C)C3)C2)ccc1Nc1ncc(C(F)(F)F)c(Oc2cccc3c2C(=O)N(C)C32CC2)n1 (stereo not drawn) [Compound 25]
< 20	> 2000	< 5	COc1cc(N2CCC3(CCN(C)C3)C2)ccc1Nc1ncc(Cl)c(Oc2cccc3c2C(=O)N(C)C32CC2)n1 (stereo not drawn) [Compound 151]
< 20	> 2000	5 to 50	CCN1CCC2(CC1)CC(NC(=O)c1ccc(Nc3ncc(C(F)(F)F)c(Oc4cccc5c4C(=O)N(C)C54CC4)n3)c(OC)c1)C2 [Compound 46]
< 20	> 2000	< 5	COc1cc(C2CCN(C)CC2)ccc1Nc1ncc(C(F)(F)F)c(Oc2cccc3c2C(=O)N(C)C32CC2)n1 [Compound 84]
< 20	> 2000	5 to 50	COc1cc(N2CCNCC2)ccc1Nc1ncc(C(F)(F)F)c(Oc2cccc3c2C(=O)N(C)C32CC2)n1 [Compound 74, 4′-((2-((2-methoxy-4-(piperazin-1-yl)phenyl)amino)-5-(trifluoromethyl)pyrimidin-4-yl)oxy)-2′-methylspiro[cyclopropane-1,1′-isoindolin]-3′-one]
< 20	> 2000	5 to 50	CN1CCC(NC(=O)c2ccc(Nc3ncc(C(F)(F)F)c(Oc4cccc5c4C(=O)N(C)C54CC4)n3)c(OC(F)(F)F)c2)CC1 [Compound 53]
< 20	> 2000	< 5	COc1cc(N2CCN(C)CC2)c(F)cc1Nc1ncc(C(F)(F)F)c(Oc2cccc3c2C(=O)N(C)C32CC2)n1 [Compound 122]
< 20	> 2000	5 to 50	COc1cc(C(=O)N2CCC3(CCN(C)C3)C2)ccc1Nc1ncc(C(F)(F)F)c(Oc2cccc3c2C(=O)N(C)C32CC2)n1 (stereo not drawn) [Compound 57]
< 20	> 2000	< 5	COc1cc(C(=O)NC2CCC23CCN(C)CC3)ccc1Nc1ncc(C(F)(F)F)c(Oc2cccc3c2C(=O)N(C)C32CC2)n1 (stereo not drawn) [Compound 13]
< 20	> 2000	5 to 50	COc1cc(C(=O)N2CCC3(CCN(C)CC3)C2)ccc1Nc1ncc(C(F)(F)F)c(Oc2cccc3c2C(=O)N(C)C32CC2)n1 [Compound 60]
< 20	> 2000	5 to 50	CN1CCN(c2ccc(Nc3ncc(C(F)(F)F)c(Oc4cccc5c4C(=O)N(C)C54CC4)n3)nc2)CC1 [Compound 85]
< 20	> 2000	< 5	COc1cc(N2CCC3(CC2)CN(C)C3)ccc1Nc1ncc(C#N)c(Oc2cccc3c2C(=O)N(C)C32CC2)n1 [Compound 202]

Continued, molecule first:

SMILES	IC50 [1] [nM]	IC50 [2] [nM]	IC50 [3] [nM]
COc1cc(C(=O)NC2CC3(CCN(C)CC3)C2)c(F)cc1Nc1ncc(Cl)c(Oc2cccc3c2C(=O)N(C)C32CC2)n1 [Compound 132, 4-((5-chloro-4-((2′-methyl-3′-oxospiro[cyclopropane-1,1′-isoindolin]-4′-yl)oxy)pyrimidin-2-yl)amino)-2-fluoro-5-methoxy-N-(7-methyl-7-azaspiro[3.5]nonan-2-yl)benzamide]	< 20	> 2000	5 to 50
COc1cc(C(=O)NC2CC3(CCN(C)CC3)C2)c(F)cc1Nc1ncc(Br)c(Oc2cccc3c2C(=O)N(C)C32CC2)n1 [Compound 175]	< 20	> 2000	< 5
COc1cc(C(=O)NC2CC3(CCN(C)CC3)C2)ccc1Nc1ncc(Br)c(Oc2cccc3c2C(=O)N(C)C32CC2)n1 [Compound 176]	< 20	> 2000	< 5
COc1cc(C(=O)NC2(C)CCN(C)CC2)c(F)cc1Nc1ncc(C(F)(F)F)c(Oc2cccc3c2C(=O)N(C)C32CC2)n1 [Compound 7]	< 20	> 2000	< 5
COc1cc(C(=O)NC2CC3(CCN(C)CC3)C2)c(F)cc1Nc1ncc(C#N)c(Oc2cccc3c2C(=O)N(C)C32CC2)n1 [Compound 194]	< 20	> 2000	< 5
COc1cc(C(=O)NC2CCC3(CC2)CCN3C)ccc1Nc1ncc(C(F)(F)F)c(Cc2cccc3c2C(=O)N(C)C32CC2)n1 (stereo not drawn) [Compound 109]	< 20	> 2000	5 to 50
COc1cc(N2CC3(CN(C)C3)C2)c(F)cc1Nc1ncc(Cl)c(Oc2cccc3c2C(=O)N(C)C32CC2)n1 [Compound 145]	< 20	> 2000	5 to 50
COc1cc(N2CCC3(CC2)CN(C)C3)c(F)cc1Nc1ncc(Cl)c(Oc2cccc3c2C(=O)N(C)C32CC2)n1 [Compound 148]	< 20	> 2000	< 5
COc1cc(C(=O)NC2CCN(C)CC2)c(Cl)cc1Nc1ncc(C(F)(F)F)c(Oc2cccc3c2C(=O)N(C)C32CC2)n1 [Compound 5]	< 20	> 2000	< 5
COc1cc(N2CCC3CN(C)CC3C2)ccc1Nc1ncc(Cl)c(Oc2cccc3c2C(=O)N(C)C32CC2)n1 (stereo not drawn) [Compound 173]	< 20	> 2000	< 5
COc1cc(N2CCC3CN(C)CC32)ccc1Nc1ncc(Cl)c(Oc2cccc3c2C(=O)N(C)C32CC2)n1 (stereo not drawn) [Compound 172]	< 20	> 2000	5 to 50
COc1cc(N2CCC(N3CCN(C)CC3)CC2)ccc1Nc1ncc(C(F)(F)F)c(Cc2cccc3c2C(=O)N(C)C32CC2)n1 [Compound 113]	< 20	> 2000	5 to 50
COc1cc(N2CC3(CCN(C)CC3)C2)c(F)cc1Nc1ncc(Cl)c(Oc2cccc3c2C(=O)N(C)C32CCC2)n1 [Compound 206]	< 20	> 2000	< 5
COc1cc(C(=O)NC2CCN3CCN(C)C3C2)ccc1Nc1ncc(C(F)(F)F)c(Cc2cccc3c2C(=O)N(C)C32CC2)n1 (stereo not drawn) [Compound 110]	< 20	> 2000	> 50
COc1cc(C(=O)NC2CCN(C)CC2)ccc1Nc1ncc(C(F)(F)F)c(Cc2cccc3c2C(=O)N(C)C32CC2)n1 [Compound 99, 3-methoxy-4-((4-((2′-methyl-3′-oxospiro[cyclopropane-1,1′-isoindolin]-4′-yl)methyl)-5-(trifluoromethyl)pyrimidin-2-yl)amino)-N-(1-methylpiperidin-4-yl)benzamide]	< 20	> 2000	5 to 50
COc1cc(N2CC3(CCN(C)CC3)C2)ccc1Nc1ncc(Cl)c(Oc2cccc3c2C(=O)N(C)C32CCOCC2)n1 [Compound 213]	< 20	> 2000	> 50
COc1cc(N2CC3(CCN(C)CC3)C2)c(F)cc1Nc1ncc(Cl)c(Oc2cccc3c2C(=O)N(C)C32CCCCC2)n1 [Compound 211]	< 20	> 2000	> 50
[2H]C([2H])([2H])N1CCC(C)(NC(=O)c2cc(OC)c(Nc3ncc(C(F)(F)F)c(Oc4cccc5c4C(=O)N(C)C54CC4)n3)cc2F)CC1 [Compound 43]	< 20	> 2000	< 5
COc1cc(C(=O)NC2COC3(CCN(C)CC3)C2)c(F)cc1Nc1ncc(C(F)(F)F)c(Oc2cccc3c2C(=O)N(C)C32CC2)n1 (stereo not drawn) [Compound 16]	< 20	> 2000	< 5

Reference: US20250154134A1, “COMPOUND AS FAK INHIBITOR AND USE THEREOF” (WIGEN BIOMEDICINE TECHNOLOGY (SHANGHAI) CO., LTD., priority 2022, published 2025)
